This passage reports MIC results from PMC12121777 (PLOS One, 2025).

≈ marks a conversion by molar mass, not a printed value. Where two headings read alike, the source gives them in different places.

In assay [1] the test system is Mycobacterium avium 330/88. Briefly: MIC, micro method in Šula's semisynthetic medium, M. avium. Particulars: read-out: MIC M. avium 330/88. Type of assay: cell-based.
In a further assay the test system is Mtb 331/88 (i.e., H37Rv). The experiment in a line: MIC, micro method in Šula's semisynthetic medium, drug-susceptible Mtb. Type of assay: cell-based, Mycobacterium tuberculosis. Particulars: Mycobacterium tuberculosis, H37RV.
The subject of assay [2] is Mycobacterium kansasii 6509/96. Briefly: MIC, micro method in Šula's semisynthetic medium, M. kansasii clinical isolate. Type of assay: cell-based. Particulars: read-out: MIC M. kansasii 6509/96.

For the molecule `O=[N+]([O-])c1cc(-c2nnc(NCc3ccc(Cl)cc3)o2)cc([N+](=O)[O-])c1` [Compound 7c, N-(4-Chlorobenzyl)-5-(3,5-dinitrophenyl)-1,3,4-oxadiazol-2-amine], the MIC in assay [1] (330/88, 336 h) stood at 1 µM (≈ 0.376 µg/mL); in assay [1] (330/88, 504 h), 2 µM (≈ 0.751 µg/mL); in the assay with Mtb 331/88 (i.e., H37Rv) (336 h, 14 days) it was 0.125 µM (≈ 0.047 µg/mL); against Mtb 331/88 (i.e., H37Rv) (504 h, 21 days) it was 0.125 µM (≈ 0.047 µg/mL); in assay [2] (6509/96, 168 h), 0.125 µM (≈ 0.047 µg/mL); in assay [2] (6509/96, 336 h) it was 0.125 µM (≈ 0.047 µg/mL). Further, the MIC in assay [2] (6509/96, 504 h) came to 0.25 µM (≈ 0.0939 µg/mL).
`CCCCCCCCCCCCSc1nnc(-c2cc([N+](=O)[O-])cc([N+](=O)[O-])c2)o1` [Compound 10, 2-(3,5-Dinitrophenyl)-5-(dodecylthio)-1,3,4-oxadiazole]: the MIC in assay [1] (330/88, 336 h) came out at 500 µM (≈ 218 µg/mL); in assay [1] (330/88, 504 h) it was 500 µM (≈ 218 µg/mL); against Mtb 331/88 (i.e., H37Rv) (336 h, 14 days) it was 8 µM (≈ 3.49 µg/mL); in the assay on Mtb 331/88 (i.e., H37Rv) (504 h, 21 days), 8 µM (≈ 3.49 µg/mL); in assay [2] (6509/96, 168 h) it was 2 µM (≈ 0.873 µg/mL); in assay [2] (6509/96, 336 h), 4 µM (≈ 1.75 µg/mL). The MIC in assay [2] (6509/96, 504 h) is 8 µM (≈ 3.49 µg/mL).
Take `CCCCCCCCCCCCCCCCNC(=O)NNC(=O)c1cc([N+](=O)[O-])cc([N+](=O)[O-])c1` [Compound 4p, 2-(3,5-Dinitrobenzoyl)-N-hexadecylhydrazine-1-carboxamide]: the MIC is above 1000 µM in assay [1] (330/88, 336 h); above 1000 µM in assay [1] (330/88, 504 h); 8 µM (≈ 3.95 µg/mL) against Mtb 331/88 (i.e., H37Rv) (336 h, 14 days); 16 µM (≈ 7.9 µg/mL) against Mtb 331/88 (i.e., H37Rv) (504 h, 21 days); 8 µM (≈ 3.95 µg/mL) in assay [2] (6509/96, 168 h); 16 µM (≈ 7.9 µg/mL) in assay [2] (6509/96, 336 h). In addition, the MIC in assay [2] (6509/96, 504 h) was found to be 16 µM (≈ 7.9 µg/mL).
Take `CCCCCCCCCCCCCCCCNc1nnc(-c2cc([N+](=O)[O-])cc([N+](=O)[O-])c2)o1` [Compound 5p, 5-(3,5-Dinitrophenyl)-N-hexadecyl-1,3,4-oxadiazol-2-amine]: the MIC in assay [1] (330/88, 336 h) amounted to 8 µM (≈ 3.8 µg/mL); in assay [1] (330/88, 504 h) it was 16 µM (≈ 7.61 µg/mL); in the assay with Mtb 331/88 (i.e., H37Rv) (336 h, 14 days), 8 µM (≈ 3.8 µg/mL); against Mtb 331/88 (i.e., H37Rv) (504 h, 21 days) it was 8 µM (≈ 3.8 µg/mL); in assay [2] (6509/96, 168 h), 2 µM (≈ 0.951 µg/mL); in assay [2] (6509/96, 336 h), 4 µM (≈ 1.9 µg/mL). Besides, in assay [2] (6509/96, 504 h), the MIC amounted to 8 µM (≈ 3.8 µg/mL).
On to `COc1ccc(CNc2nnc(-c3cc([N+](=O)[O-])cc([N+](=O)[O-])c3)o2)cc1` [Compound 7b, 5-(3,5-Dinitrophenyl)-N-(4-methoxybenzyl)-1,3,4-oxadiazol-2-amine], for which the MIC in assay [1] (330/88, 336 h) was 2 µM (≈ 0.743 µg/mL); in assay [1] (330/88, 504 h) it was 2 µM (≈ 0.743 µg/mL); against Mtb 331/88 (i.e., H37Rv) (336 h, 14 days) it was at most 0.03 µM; against Mtb 331/88 (i.e., H37Rv) (504 h, 21 days), at most 0.03 µM; in assay [2] (6509/96, 168 h) it was at most 0.03 µM; in assay [2] (6509/96, 336 h), at most 0.03 µM. The MIC in assay [2] (6509/96, 504 h) is at most 0.03 µM.
With `CCNC(=O)NNC(=O)c1cc([N+](=O)[O-])cc([N+](=O)[O-])c1` [Compound 4b, 2-(3,5-Dinitrobenzoyl)-N-ethylhydrazine-1-carboxamide], the MIC in assay [1] (330/88, 336 h) was 1000 µM (≈ 297 µg/mL); in assay [1] (330/88, 504 h), 1000 µM (≈ 297 µg/mL); against Mtb 331/88 (i.e., H37Rv) (336 h, 14 days), 32 µM (≈ 9.51 µg/mL); in the assay on Mtb 331/88 (i.e., H37Rv) (504 h, 21 days), above 32 µM; in assay [2] (6509/96, 168 h) it was 64 µM (≈ 19 µg/mL); in assay [2] (6509/96, 336 h), 125 µM (≈ 37.2 µg/mL). Besides, the MIC in assay [2] (6509/96, 504 h) is 125 µM (≈ 37.2 µg/mL).
Consider `CCCCCCCCCCCCCCCCCNc1nnc(-c2cc([N+](=O)[O-])cc([N+](=O)[O-])c2)o1` [Compound 5q, 5-(3,5-Dinitrophenyl)-N-heptadecyl-1,3,4-oxadiazol-2-amine], for which the MIC in assay [1] (330/88, 336 h) was 32 µM (≈ 15.7 µg/mL); in assay [1] (330/88, 504 h), 64 µM (≈ 31.3 µg/mL); against Mtb 331/88 (i.e., H37Rv) (336 h, 14 days) it was 32 µM (≈ 15.7 µg/mL); in the assay with Mtb 331/88 (i.e., H37Rv) (504 h, 21 days), above 32 µM; in assay [2] (6509/96, 168 h), 8 µM (≈ 3.92 µg/mL); in assay [2] (6509/96, 336 h), 16 µM (≈ 7.83 µg/mL). Also, the MIC in assay [2] (6509/96, 504 h) turned out to be 32 µM (≈ 15.7 µg/mL).
On to `CNC(=O)NNC(=O)c1cc([N+](=O)[O-])cc([N+](=O)[O-])c1` [Compound 4a, 2-(3,5-Dinitrobenzoyl)-N-methylhydrazine-1-carboxamide], for which the MIC was 1000 µM (≈ 283 µg/mL) in assay [1] (330/88, 336 h); 1000 µM (≈ 283 µg/mL) in assay [1] (330/88, 504 h); above 32 µM against Mtb 331/88 (i.e., H37Rv) (336 h, 14 days); above 32 µM in the assay on Mtb 331/88 (i.e., H37Rv) (504 h, 21 days); 250 µM (≈ 70.8 µg/mL) in assay [2] (6509/96, 168 h); 500 µM (≈ 142 µg/mL) in assay [2] (6509/96, 336 h). The MIC in assay [2] (6509/96, 504 h) worked out at 500 µM (≈ 142 µg/mL).
Consider `O=[N+]([O-])c1cc(-c2nnc(NCc3ccccc3)o2)cc([N+](=O)[O-])c1` [Compound 7a, N-Benzyl-5-(3,5-dinitrophenyl)-1,3,4-oxadiazol-2-amine], for which the MIC turned out to be 4 µM (≈ 1.37 µg/mL) in assay [1] (330/88, 336 h); 4 µM (≈ 1.37 µg/mL) in assay [1] (330/88, 504 h); 0.125 µM (≈ 0.0427 µg/mL) against Mtb 331/88 (i.e., H37Rv) (336 h, 14 days); 0.25 µM (≈ 0.0853 µg/mL) against Mtb 331/88 (i.e., H37Rv) (504 h, 21 days); 0.5 µM (≈ 0.171 µg/mL) in assay [2] (6509/96, 168 h); 1 µM (≈ 0.341 µg/mL) in assay [2] (6509/96, 336 h). Besides, in assay [2] (6509/96, 504 h), the MIC was 1 µM (≈ 0.341 µg/mL).
Consider `O=[N+]([O-])c1cc(-c2nnc(NCc3ccc(Br)cc3)o2)cc([N+](=O)[O-])c1` [Compound 7e, N-(4-Bromobenzyl)-5-(3,5-dinitrophenyl)-1,3,4-oxadiazol-2-amine], for which the MIC in assay [1] (330/88, 336 h) is 2 µM (≈ 0.84 µg/mL); in assay [1] (330/88, 504 h), 4 µM (≈ 1.68 µg/mL); in the assay on Mtb 331/88 (i.e., H37Rv) (336 h, 14 days), 0.25 µM (≈ 0.105 µg/mL); in the assay on Mtb 331/88 (i.e., H37Rv) (504 h, 21 days), 0.25 µM (≈ 0.105 µg/mL); in assay [2] (6509/96, 168 h), 0.25 µM (≈ 0.105 µg/mL); in assay [2] (6509/96, 336 h), 0.5 µM (≈ 0.21 µg/mL). In assay [2] (6509/96, 504 h), the MIC was 0.5 µM (≈ 0.21 µg/mL).
